IC50 data for three molecules are collected here from patent publication USRE48711E1, “Apoptosis signal-regulating kinase inhibitors” (Gilead Sciences, Inc., priority 2009, dated 2021).

The test addresses ASK1 (Apoptosis Signal-Regulating Kinase 1) (Homo sapiens (Human), UniProt Q99683). Briefly: ASK1 (Apoptosis Signal-Regulating Kinase 1) TR-FRET Kinase Assay (Biochemical IC50). The following applies: TR-FRET, biotin-MBP substrate, 20 min pre-incubation, ATP added as 300 μM solution.

pIC50: −log10 of the molar value.

ASK1 (Apoptosis Signal-Regulating Kinase 1), sequence (Q99683 649-946): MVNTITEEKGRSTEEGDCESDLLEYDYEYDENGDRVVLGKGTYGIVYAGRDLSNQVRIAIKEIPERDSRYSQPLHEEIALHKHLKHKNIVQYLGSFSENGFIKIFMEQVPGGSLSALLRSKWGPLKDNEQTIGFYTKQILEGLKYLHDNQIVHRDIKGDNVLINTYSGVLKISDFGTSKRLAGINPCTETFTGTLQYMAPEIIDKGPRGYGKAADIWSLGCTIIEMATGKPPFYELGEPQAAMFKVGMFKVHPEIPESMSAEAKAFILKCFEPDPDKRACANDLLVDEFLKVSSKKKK

`C[C@H](n1cnnc1-c1cccc(NC(=O)c2cc(-c3ccc(C4CC4)nc3)ccn2)c1)C(F)(F)F` [Example 223, (S)-6-cyclopropyl-N-(3-(4-(1,1,1-trifluoropropan-2-yl)-4H-1,2,4-triazol-3-yl)phenyl)-3,4′-bipyridine-2′-carboxamide] gave a pIC50 of 7.35.

As for `C[C@H](CO)n1cnnc1-c1cccc(NC(=O)c2cc(-c3cccnc3)ccn2)c1` [Example 19, (R)-N-(3-(4-(1-hydroxypropan-2-yl)-4H-1,2,4-triazol-3-yl)phenyl)-3,4′-bipyridine-2′-carboxamide], the pIC50 is 8.05.

Turning to `CNS(=O)(=O)c1ccc(-c2ccnc(C(=O)Nc3cccc(-c4nncn4C4CC4)c3)c2)cc1` [Example 98, N-(3-(4-cyclopropyl-4H-1,2,4-triazol-3-yl)phenyl)-4-(4-(N-methylsulfamoyl)phenyl)picolinamide], the pIC50 was 8.15.
